Measurements published in paper PMC9570490, “Novel Morpholine-Bearing Quinoline Derivatives as Potential Cholinesterase Inhibitors: The Influence of Amine, Carbon Linkers and Phenylamino Groups” (International Journal of Molecular Sciences, 2022).

Key:
[1] = target: T1, BChE (EC 3.1.1.8, from horse serum) (Equus caballus, UniProt P81908); experiment: biochemical; conditions: means ± SD, at least three independents
T1 construct: BChE (EC 3.1.1.8, from horse serum); purchased Sigma-Aldrich; host or cells: horse serum
Description: (§1) AChE and BChE inhibitory activities of compounds were determined by using a modified Ellman’s method. AChE (EC 3.1.1.7, from electric eel), BChE (EC 3.1.1.8, from horse serum), 5,5′-dithiobis(2nitrobenzoic acid) (DTNB), acetylthiocholine iodide (ATCI) and butyrylthiocholine iodide (BTCI) were purchased from Sigma-Aldrich. The reaction mixture contained 140 μL of 100 mM sodium phosphate buffer (pH 8.0), the enzyme solution (either 0.05 U/mL of AChE, 20 μL; or 0.05 U/mL of BChE, 20 μL), and test compound (20 μL). Assayed solutions of test compounds were pre-incubated with corresponding ChE at 25 °C for 15 min. The reaction was initiated by the addition of 10 μL of 10 mM DTNB and 10 μL of 7.5 mM substrate (ATCI or BTCI). The activity was determined by measuring the increase in absorbance at 412 nm at 37 °C in 10 min intervals using a microplate reader. The percentage of inhibition was calculated from the measured data as follows: (Ac − Ai)/Ac × 100%, where Ai and Ac represent the change in the absorbance in the presence of inhibitor and without inhibitor, respectively.

[2] = target: T2, AChE (EC 3.1.1.7, from electric eel) (Electrophorus electricus, UniProt O42275); experiment: biochemical; conditions: for IC50: means ± SD, at least three independents
T2 construct: purchased Sigma-Aldrich
Description: as §1

T2 sequence (O42275 24-633): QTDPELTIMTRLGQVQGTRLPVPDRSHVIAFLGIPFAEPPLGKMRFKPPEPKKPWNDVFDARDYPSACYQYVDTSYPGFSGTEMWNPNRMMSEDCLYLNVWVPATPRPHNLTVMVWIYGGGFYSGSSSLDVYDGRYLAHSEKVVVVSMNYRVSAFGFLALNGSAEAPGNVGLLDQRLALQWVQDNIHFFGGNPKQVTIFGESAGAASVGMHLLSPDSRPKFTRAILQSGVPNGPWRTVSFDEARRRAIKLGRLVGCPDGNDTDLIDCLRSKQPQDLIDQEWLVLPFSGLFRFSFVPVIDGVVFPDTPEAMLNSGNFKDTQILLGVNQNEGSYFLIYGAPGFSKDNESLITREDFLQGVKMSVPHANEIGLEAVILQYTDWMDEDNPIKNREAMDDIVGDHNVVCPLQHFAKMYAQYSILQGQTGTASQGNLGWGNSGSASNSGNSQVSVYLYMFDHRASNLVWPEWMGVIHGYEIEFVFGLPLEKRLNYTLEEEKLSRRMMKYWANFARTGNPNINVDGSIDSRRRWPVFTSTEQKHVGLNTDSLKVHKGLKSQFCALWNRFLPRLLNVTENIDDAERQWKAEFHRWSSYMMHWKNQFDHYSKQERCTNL
T1 sequence (P81908 whole entry): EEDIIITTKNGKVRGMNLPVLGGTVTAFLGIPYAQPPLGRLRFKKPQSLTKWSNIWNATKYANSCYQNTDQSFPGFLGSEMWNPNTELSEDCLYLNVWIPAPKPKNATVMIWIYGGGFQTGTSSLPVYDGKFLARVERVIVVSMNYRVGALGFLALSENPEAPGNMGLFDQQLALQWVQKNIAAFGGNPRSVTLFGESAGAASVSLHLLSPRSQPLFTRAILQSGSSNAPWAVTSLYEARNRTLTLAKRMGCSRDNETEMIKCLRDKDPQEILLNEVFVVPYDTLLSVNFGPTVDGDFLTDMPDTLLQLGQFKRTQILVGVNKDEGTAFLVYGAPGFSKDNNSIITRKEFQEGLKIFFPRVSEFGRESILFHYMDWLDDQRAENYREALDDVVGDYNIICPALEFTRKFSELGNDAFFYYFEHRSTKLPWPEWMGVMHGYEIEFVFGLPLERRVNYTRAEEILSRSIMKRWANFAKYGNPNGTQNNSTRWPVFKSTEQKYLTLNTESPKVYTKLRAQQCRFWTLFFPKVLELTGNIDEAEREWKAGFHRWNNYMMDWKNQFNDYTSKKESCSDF

Row | SMILES | IC50 [1] [µM] | SI for AChE = IC50 BChE/IC50 AChE [2] | IC50 [2] [µM]
1 | COc1cc2c(Nc3ccccc3Cl)c([N+](=O)[O-])cnc2cc1OCCCN1CCOCC1 [11b, 6-Methoxy-7-(3-Morpholinopropoxy)-3-Nitro-4-(2-Chlorophenylamino)-Quinoline] | 130 ± 4.62 | 10.42 | 12.5 ± 0.21
2 | COc1cc2c(Nc3cccc(Cl)c3)c([N+](=O)[O-])cnc2cc1OCCCN1CCOCC1 [11c, 6-Methoxy-7-(3-Morpholinopropoxy)-3-Nitro-4-(3-Chlorophenylamino)-Quinoline] | 114 ± 5.36 | 3.55 | 32.4 ± 0.16
3 | COc1cc2c(Nc3ccc(Cl)cc3)c([N+](=O)[O-])cnc2cc1OCCCN1CCOCC1 [11d, 6-Methoxy-7-(3-Morpholinopropoxy)-3-Nitro-4-(4-Chlorophenylamino)-Quinoline] | 82.4 ± 3.06 | 0.92 | 88.7 ± 1.1
4 | COc1cc2c(Nc3ccccc3Cl)c([N+](=O)[O-])cnc2cc1OCCN1CCOCC1 [11h, 6-Methoxy-7-(2-Morpholinoethoxy)-3-Nitro-4-(2-Chlorophenylamino)-Quinoline] | 81.1 ± 4.03 | 12.55 | 6.46 ± 0.77
5 | COc1cc2c(Nc3cccc(Cl)c3)c([N+](=O)[O-])cnc2cc1OCCN1CCOCC1 [11i, 6-Methoxy-7-(2-Morpholinoethoxy)-3-Nitro-4-(3-Chlorophenylamino)-Quinoline] | 111 ± 5.59 | 11.08 | 10 ± 0.52
6 | COc1cc2c(Nc3ccc(Cl)cc3)c([N+](=O)[O-])cnc2cc1OCCN1CCOCC1 [11j, 6-Methoxy-7-(2-Morpholinoethoxy)-3-Nitro-4-(4-Chlorophenylamino)-Quinoline] | 76.8 ± 3.76 | 8.90 | 8.63 ± 0.4
7 | COc1cc2c(Nc3ccccc3)c([N+](=O)[O-])cnc2cc1OCCCCN1CCOCC1 [11m, 6-Methoxy-7-(4-Morpholinobutoxy)-3-Nitro-4-Phenylamino-Quinoline] | > 150 | >11.24 | 13.34 ± 0.07
8 | COc1cc2c(Nc3ccccc3Cl)c([N+](=O)[O-])cnc2cc1OCCCCN1CCOCC1 [11n, 6-Methoxy-7-(4-Morpholinobutoxy)-3-Nitro-4-(2-Chlorophenylamino)-Quinoline] | > 150 | >1.75 | 85.57 ± 0.04
9 | COc1cc2c(Nc3cccc(Cl)c3)c([N+](=O)[O-])cnc2cc1OCCCCN1CCOCC1 [11o, 6-Methoxy-7-(4-Morpholinobutoxy)-3-Nitro-4-(3-Chlorophenylamino)-Quinoline] | 116 ± 5.36 | <0.77 | > 150
10 | COc1cc2c(Nc3ccc(Cl)cc3)c([N+](=O)[O-])cnc2cc1OCCCCN1CCOCC1 [11p, 6-Methoxy-7-(4-Morpholinobutoxy)-3-Nitro-4-(4-Chlorophenylamino)-Quinoline] | 98.1 ± 0.02 | 1.08 | 90.46 ± 0.06
11 | COc1cc2c(Nc3ccccc3Cl)c(N)cnc2cc1OCCCN1CCOCC1 [12b, 6-Methoxy-7-(3-Morpholinopropoxy)-3-Amino-4-(2-Chlorophenylamino)-Quinoline] | 130 ± 3.76 | 3.01 | 43.3 ± 0.68
12 | COc1cc2c(Nc3ccc(Cl)cc3)c(N)cnc2cc1OCCCN1CCOCC1 [12d, 6-Methoxy-7-(3-Morpholinopropoxy)-3-Amino-4-(4-Chlorophenylamino)-Quinoline] | 145 ± 4.25 | 6.63 | 21.84 ± 0.2
